Series [1] relates to HCT116 (human colorectal carcinoma) cells. As to the kind of experiment: Cell growth inhibition assay, HCT116. The format is cell-based. The protocol: (§1) A population of cells (>1×10^6 cells/mL as determined with a hemocytometer) was diluted with an appropriate amount of Dulbecco-modified Eagle Medium (DMEM, Gibco) containing 10% fetal bovine serum (FBS, Gibco) to a final concentration of 30,000 cells/mL.
(§2) To each well of a 96-well plate (Corning Costar), 100 μL of the cell-media solution was added with a multichannel pipette. The cultures were incubated at 37° C. in an atmosphere of 5% CO2 and 95% humidified air for 24 hours. The test compounds were added to the plate as follows: test substances were diluted in DMSO to a concentration of 1 mM and 10-fold serial dilutions were performed on a separate 96-well plate. Fresh culture medium (100 μL) was added to each well of cells to constitute 200 μL of medium per well followed by 2 μL of each test agent. Compounds were tested in duplicate (n=2-8 times) at six concentrations between 0-1,000 nM or 0-10,000 nM. Following addition, cultures were incubated for an additional 72 hours.
(§3) The plates were incubated at 37° C. for either 5 minutes (L1210) or 15 minutes (HCT116 and HCT116/VM46).

The test system of series [2] is L1210 (mouse lymphocytic leukemia) cells. As to the kind of experiment: Cell growth inhibition assay, L1210. The format is cell-based. As to conditions: L1210 murine leukemia cell line; avg of 4-16 determinations. The protocol: as §1, §2, §3
The subject of series [3] is HCT116/VM46 (vinblastine-resistant strain of HCT116, Pgp over-expression) cells. As to the kind of experiment: Cell growth inhibition assay, HCT116/VM46. The settings on record: for IC50: read-out: IC50 (nM) HCT116/VM46, resistant human colon cancer cell line, Pgp over-expression; for fold improvement over vinblastine, HCT116/VM46: relative to vinblastine. The method, then:
as §1, §2, §3

[4] abbreviates: HCT116 human colon cancer cell line, avg of 4-16 determinations, read-out: IC50 (nM) HCT116.

Like-named read-outs stand apart in the source and are kept apart here.

Consider `CC[C@]1(NC(=O)Oc2ccc([N+](=O)[O-])cc2)C[C@@H]2CN(CCc3c([nH]c4ccccc34)[C@@](C(=O)OC)(c3cc4c(cc3OC)N(C)[C@H]3[C@@](O)(C(=O)OC)[C@H](OC(C)=O)[C@]5(CC)C=CCN6CC[C@]43[C@@H]65)C2)C1` [Compound 13], for which the IC50 in series [1] (setting [4]) is 55 nM.

For the molecule `CCC1(NC(=O)NC)CC2CN(CCc3c([nH]c4ccccc34)C(C(=O)OC)(c3cc4c(cc3OC)N(C)C3C(O)(C(=O)OC)C(OC(C)=O)C5(CC)C=CCN6CCC43C65)C2)C1` (stereo not shown) [Compound 14], the values for the IC50 in series [2], in series [1] (setting [4]) and in series [3] were 5.7 nM, 0.82 nM and 530 nM, respectively.

With `CCNC(=O)N[C@@]1(CC)C[C@@H]2CN(CCc3c([nH]c4ccccc34)[C@@](C(=O)OC)(c3cc4c(cc3OC)N(C)[C@H]3[C@@](O)(C(=O)OC)[C@H](OC(C)=O)[C@]5(CC)C=CCN6CC[C@]43[C@@H]65)C2)C1` [Compound 15], the IC50 in series [2] came to 2.1 nM; in series [1] (setting [4]), 0.73 nM; in series [3], 90 nM. The “fold improvement over vinblastine, HCT116/VM46” value (from here on “fold improvement”) in series [3] was determined as 10 fold.

Consider `CCCNC(=O)N[C@@]1(CC)C[C@@H]2CN(CCc3c([nH]c4ccccc34)[C@@](C(=O)OC)(c3cc4c(cc3OC)N(C)[C@H]3[C@@](O)(C(=O)OC)[C@H](OC(C)=O)[C@]5(CC)C=CCN6CC[C@]43[C@@H]65)C2)C1` [Compound 16], for which the IC50 in series [2] was 6 nM; in series [1] (setting [4]), 2.7 nM; in series [3] it was 221 nM.

`CC[C@]1(NC(=O)NC(C)C)C[C@@H]2CN(CCc3c([nH]c4ccccc34)[C@@](C(=O)OC)(c3cc4c(cc3OC)N(C)[C@H]3[C@@](O)(C(=O)OC)[C@H](OC(C)=O)[C@]5(CC)C=CCN6CC[C@]43[C@@H]65)C2)C1` [Compound 17]: the IC50 was 5.5 nM in series [2], 5.7 nM in series [1] (setting [4]) and 430 nM in series [3].

As for `CC[C@]1(NC(=O)NC2CC2)C[C@@H]2CN(CCc3c([nH]c4ccccc34)[C@@](C(=O)OC)(c3cc4c(cc3OC)N(C)[C@H]3[C@@](O)(C(=O)OC)[C@H](OC(C)=O)[C@]5(CC)C=CCN6CC[C@]43[C@@H]65)C2)C1` [Compound 18], the IC50 was 3.9 nM in series [2], 0.73 nM in series [1] (setting [4]) and 85 nM in series [3]. Besides, the “fold improvement” value in series [3] was found to be 10 fold.

Regarding `CCCCNC(=O)N[C@@]1(CC)C[C@@H]2CN(CCc3c([nH]c4ccccc34)[C@@](C(=O)OC)(c3cc4c(cc3OC)N(C)[C@H]3[C@@](O)(C(=O)OC)[C@H](OC(C)=O)[C@]5(CC)C=CCN6CC[C@]43[C@@H]65)C2)C1` [Compound 19], the results for the IC50 in series [2], in series [1] (setting [4]) and in series [3] were 5.7 nM, 4.6 nM and 270 nM, respectively.

In the case of `CC[C@]1(NC(=O)NC(C)(C)C)C[C@@H]2CN(CCc3c([nH]c4ccccc34)[C@@](C(=O)OC)(c3cc4c(cc3OC)N(C)[C@H]3[C@@](O)(C(=O)OC)[C@H](OC(C)=O)[C@]5(CC)C=CCN6CC[C@]43[C@@H]65)C2)C1` [Compound 20], the IC50 in series [2] stood at 40 nM; in series [1] (setting [4]) it was 20 nM; in series [3] it was 670 nM.

In the case of `CC[C@]1(NC(=O)NC2CCCCC2)C[C@@H]2CN(CCc3c([nH]c4ccccc34)[C@@](C(=O)OC)(c3cc4c(cc3OC)N(C)[C@H]3[C@@](O)(C(=O)OC)[C@H](OC(C)=O)[C@]5(CC)C=CCN6CC[C@]43[C@@H]65)C2)C1` [Compound 21], the IC50 was determined as 5.8 nM in series [2], 5.4 nM in series [1] (setting [4]) and 450 nM in series [3].

For `CC[C@]1(NC(=O)NCCO)C[C@@H]2CN(CCc3c([nH]c4ccccc34)[C@@](C(=O)OC)(c3cc4c(cc3OC)N(C)[C@H]3[C@@](O)(C(=O)OC)[C@H](OC(C)=O)[C@]5(CC)C=CCN6CC[C@]43[C@@H]65)C2)C1` [Compound 22], the IC50 in series [2] was 48 nM; in series [1] (setting [4]) it was 8.8 nM; in series [3], > 1000 nM.

As for `CC[C@]1(NC(=O)Nc2ccccc2)C[C@@H]2CN(CCc3c([nH]c4ccccc34)[C@@](C(=O)OC)(c3cc4c(cc3OC)N(C)[C@H]3[C@@](O)(C(=O)OC)[C@H](OC(C)=O)[C@]5(CC)C=CCN6CC[C@]43[C@@H]65)C2)C1` [Compound 23], the IC50 turned out to be 6.5 nM in series [2], 5.1 nM in series [1] (setting [4]) and 390 nM in series [3].

In the case of `CC[C@]1(NC(=O)Nc2ccc(F)cc2)C[C@@H]2CN(CCc3c([nH]c4ccccc34)[C@@](C(=O)OC)(c3cc4c(cc3OC)N(C)[C@H]3[C@@](O)(C(=O)OC)[C@H](OC(C)=O)[C@]5(CC)C=CCN6CC[C@]43[C@@H]65)C2)C1` [Compound 24], the IC50 turned out to be 5.7 nM in series [2], 3.9 nM in series [1] (setting [4]) and 400 nM in series [3].

Take `CC[C@]1(NC(=O)Nc2ccc(Cl)cc2)C[C@@H]2CN(CCc3c([nH]c4ccccc34)[C@@](C(=O)OC)(c3cc4c(cc3OC)N(C)[C@H]3[C@@](O)(C(=O)OC)[C@H](OC(C)=O)[C@]5(CC)C=CCN6CC[C@]43[C@@H]65)C2)C1` [Compound 25]: the IC50 was 6.2 nM in series [2], 6.7 nM in series [1] (setting [4]) and 590 nM in series [3].

Regarding `CC[C@]1(NC(=O)Nc2ccc(C)cc2)C[C@@H]2CN(CCc3c([nH]c4ccccc34)[C@@](C(=O)OC)(c3cc4c(cc3OC)N(C)[C@H]3[C@@](O)(C(=O)OC)[C@H](OC(C)=O)[C@]5(CC)C=CCN6CC[C@]43[C@@H]65)C2)C1` [Compound 26], the IC50 in series [2] turned out to be 4.5 nM; in series [1] (setting [4]) it was 4.8 nM; in series [3], 330 nM.

With `CC[C@]1(NC(=S)NC2CCCCC2)C[C@@H]2CN(CCc3c([nH]c4ccccc34)[C@@](C(=O)OC)(c3cc4c(cc3OC)N(C)[C@H]3[C@@](O)(C(=O)OC)[C@H](OC(C)=O)[C@]5(CC)C=CCN6CC[C@]43[C@@H]65)C2)C1` [Compound 36], the IC50 in series [1] (setting [4]) is 20 nM; in series [3], 520 nM.

Take `CCC1(NC(=S)Nc2ccccc2)CC2CN(CCc3c([nH]c4ccccc34)C(C(=O)OC)(c3cc4c(cc3OC)N(C)C3C(O)(C(=O)OC)C(OC(C)=O)C5(CC)C=CCN6CCC43C65)C2)C1` (stereo not shown) [Compound 37]: the IC50 was determined as 40 nM in series [1] (setting [4]) and 650 nM in series [3].

With `CC[C@]1(NC(=S)NCCc2ccc(F)cc2)C[C@@H]2CN(CCc3c([nH]c4ccccc34)[C@@](C(=O)OC)(c3cc4c(cc3OC)N(C)[C@H]3[C@@](O)(C(=O)OC)[C@H](OC(C)=O)[C@]5(CC)C=CCN6CC[C@]43[C@@H]65)C2)C1` [Compound 38], the values for the IC50 in series [1] (setting [4]) and in series [3] were 60 nM and 750 nM, respectively.

Consider `CCN(CC)C(=O)N[C@@]1(CC)C[C@@H]2CN(CCc3c([nH]c4ccccc34)[C@@](C(=O)OC)(c3cc4c(cc3OC)N(C)[C@H]3[C@@](O)(C(=O)OC)[C@H](OC(C)=O)[C@]5(CC)C=CCN6CC[C@]43[C@@H]65)C2)C1` [Compound 40], for which the IC50 was 6.7 nM in series [1] (setting [4]) and 450 nM in series [3].

As to `CCC1(NC(=S)N(C)C)CC2CN(CCc3c([nH]c4ccccc34)C(C(=O)OC)(c3cc4c(cc3OC)N(C)C3C(O)(C(=O)OC)C(OC(C)=O)C5(CC)C=CCN6CCC43C65)C2)C1` (stereo not shown) [Compound 43], the values for the IC50 in series [1] (setting [4]) and in series [3] were 8.7 nM and 250 nM, respectively. For the same molecule, the “activity difference between sensitive HCT116 and vinblastine-resistant HCT116/VM46” value in series [3] (HCT116/VM46 vs HCT116) worked out at 10 fold.

As for `CCC1(OC(=O)N(C)C)CC2CN(CCc3c([nH]c4ccccc34)C(C(=O)OC)(c3cc4c(cc3OC)N(C)C3C(O)(C(=O)OC)C(OC(C)=O)C5(CC)C=CCN6CCC43C65)C2)C1` (stereo not shown) [Compound 44], the “fold less active than N,N-dimethyl urea or thiourea 39 and 43” value in series [1] (HCT116) is recorded as > 1000 fold. The IC50 was 4700 nM in series [1] (setting [4]) and 9100 nM in series [3].

Take `CC[C@]1(NC)C[C@@H]2CN(CCc3c([nH]c4ccccc34)[C@@](C(=O)OC)(c3cc4c(cc3OC)N(C)[C@H]3[C@@](O)(C(=O)OC)[C@H](OC(C)=O)[C@]5(CC)C=CCN6CC[C@]43[C@@H]65)C2)C1` [Compound 45, 20′-(methylamino)vinblastine]: the IC50 in series [1] (setting [4]) came out at 60 nM; in series [3] it was 8500 nM.

`CC[C@]12C=CCN3CC[C@@]4(c5cc([C@@]6(C(=O)OC)C[C@H]7CN(CCc8c6[nH]c6ccccc86)C[C@@](CC)(N(C)C)C7)c(OC)cc5N(C)[C@H]4[C@@](O)(C(=O)OC)[C@@H]1OC(C)=O)[C@@H]32` [Compound 46]: the IC50 is 980 nM in series [1] (setting [4]) and > 10000 nM in series [3].

As to `CCNC(=O)N(C)[C@@]1(CC)C[C@@H]2CN(CCc3c([nH]c4ccccc34)[C@@](C(=O)OC)(c3cc4c(cc3OC)N(C)[C@H]3[C@@](O)(C(=O)OC)[C@H](OC(C)=O)[C@]5(CC)C=CCN6CC[C@]43[C@@H]65)C2)C1` [Compound 47], the “fold decrease in activity between 15 and 47” value in series [1] (HCT116) is given as 700 fold. Besides, the IC50 in series [1] (setting [4]) turned out to be 520 nM; in series [3], 8500 nM.

On to `CCNC(=O)NC1(CC)CC2CN(CCc3c([nH]c4ccc(F)cc34)C(C(=O)OC)(c3cc4c(cc3OC)N(C)C3C(O)(C(=O)OC)C(OC(C)=O)C5(CC)C=CCN6CCC43C65)C2)C1` (stereo not shown) [Compound 49], for which the “fold more potent than vinblastine, HCT116” value in series [1] (relative to vinblastine) is “at least 10 fold”. Besides, the IC50 in series [1] (text values in pM, read-out: IC50 HCT116) came out at 0.62 nM; in series [3], 70 nM. The “fold improvement” value in series [3] was ~10 fold.

(Values after US20150291610A1, “C20' Urea Derivatives of Vinca Alkaloids” (THE SCRIPPS RESEARCH INSTITUTE, priority 2012, published 2015).)
